In brackets after ≈: the same amount, converted by molar mass.
Columns and labels:
[1] = tested on: HF, PPC-1, and CaKi-1 cells; assay: MTT cell viability screen at 100 μM (cell line not given); assay type: cell-based, human; details: 72 h, cell line not stated
Protocol: The effect of synthesized compounds on cell viability was studied using 3-(4,5-dimethylthiazol-2-yl)-2,5-diphenyltetrazolium bromide (MTT; Sigma-Aldrich Co., St Louis, MO, USA) assay, as described elsewhere. Briefly, HF, PPC-1, and CaKi-1 cells were seeded in 96-well plates (Corning) in triplicates at a volume of 100 μL at a concentration of 4 × 10^3 cells/well. After 24 h of incubation, the cells were treated with 100 μM of tested compounds. After 72 h, the MTT reagent (at 0.5 mg/mL concentration) has been added to the wells, and cells were incubated for 4 h. Then the medium was aspirated, and the formed purple crystals were dissolved in 100 μL DMSO (Sigma-Aldrich Co.). The absorbance was measured at 570 and 630 nm using a multi-detection microplate reader. The compound effect on cell viability was calculated using a formula (1): Relativecellviability%=A−A0/ANC−A0 (1) Where: […]

[2] = tested on: Enterococcus faecalis ATCC 29212; assay: Serial broth dilution in liquid medium, E. faecalis; assay type: cell-based; details: ATCC29212, Mueller-Hinton broth, 24 hours, 50% reduction of microbial growth, n = 3
Protocol: (§1) Antibacterial and antifungal susceptibility to the compound 16b was tested using a serial broth dilution technique in Mueller-Hinton broth II (BBL, Cockeysville, USA), as described elsewhere. All procedures were done in aseptic conditions. Standard bacterial and fungal cultures were used: Staphylococcus aureus ATCC 25923, Staphylococcus epidermidis ATCC 12228, Escherichia coli ATCC 25922, Enterococcus faecalis ATCC 29212, Klebsiella pneumoniae ATCC 33499, Pseudomonas aeruginosa ATCC 27853, Proteus mirabilis ATCC 12459, Bacillus cereus ATCC 8035, and Candida albicans ATCC 60193. Standard cultures of nonsporic bacteria S. aureus, S. epidermidis, E. coli, E. faecalis, K. pneumoniae, P. aeruginosa and P. mirabilis were cultivated for 20–24 hours at 37°C in Mueller-Hinton Agar (BBL, Cockeysville, USA). A bacterial suspension was prepared from cultivated bacterial cultures in physiological solution according to turbidity standard 0.5 McFarland. Standard culture of sporic bacteria B. cereus was cultivated for 7 days at 37°C in Mueller-Hinton II Agar. […] Then the absorbance was measured at 600 nm using a multi-detection microplate reader. […]

[3] = tested on: Candida albicans ATCC 60193; assay: Serial broth dilution in liquid medium, C. albicans; assay type: cell-based; details: ATCC60193, Mueller-Hinton broth, 48 hours, 50% reduction of microbial growth, n = 3
Protocol: as §1

[4] = tested on: Escherichia coli ATCC 25922; assay: Serial broth dilution in liquid medium, E. coli; assay type: cell-based; details: ATCC25922, Mueller-Hinton broth, 24 hours, n = 3
Protocol: as §1

[5] = tested on: Klebsiella pneumoniae ATCC 33499; assay: Serial broth dilution in liquid medium, K. pneumoniae; assay type: cell-based; details: ATCC33499, Mueller-Hinton broth, 24 hours, n = 3
Protocol: as §1

[6] = tested on: Pseudomonas aeruginosa ATCC 27853; assay: Serial broth dilution in liquid medium, P. aeruginosa; assay type: cell-based; details: ATCC27853, Mueller-Hinton broth, 24 hours, n = 3
Protocol: as §1

[7] = tested on: Proteus mirabilis ATCC 12459; assay: Serial broth dilution in liquid medium, P. mirabilis; assay type: cell-based; details: ATCC12459, Mueller-Hinton broth, 24 hours, n = 3
Protocol: as §1

[8] = tested on: Staphylococcus epidermidis ATCC 12228; assay: Serial broth dilution in liquid medium, S. epidermidis; assay type: cell-based; details: Mueller-Hinton broth, 24 hours; result in words
Protocol: as §1

[9] = tested on: Bacillus cereus ATCC 8035; assay: Serial broth dilution in liquid medium, B. cereus; assay type: cell-based; details: Mueller-Hinton broth, 24 hours; result in words
Protocol: as §1

[10] = tested on: Staphylococcus aureus ATCC 25923; assay: Serial dilution on solid agar, S. aureus; assay type: cell-based; details: ATCC25923, solid Mueller-Hinton agar, 24 hours
Protocol: (§2) Antimicrobial activity of compound 16b on solid agar was tested using the same microbial cultures, and the same suspension preparation procedure, as described in above section. All procedures were done in aseptic conditions.
(§3) Mueller-Hinton agar was boiled and kept at to 37 °C during the whole procedure. Compound 16b solution was prepared in DMSO right before experiment. The Agar was mixed with compound solution at different ratios to make the final compound concentrations of 1 mM, 400 μM, 200 μM and 100 μM. Then 10 ml of prepared solution was poured into sterile Petri dishes (85 mm in diameter) and kept in aseptic conditions while the agar solidified. The agar with 0.5% of DMSO served as a negative control. With the help of loop standard microbial cultures by 0.1 ml were poured on the surface of prepared agar with investigative compound. Then Petri dishes were kept for 24 hours in thermostatic conditions.
(§4) The minimal dilution, i.e. the lowest concentration in μg/mL of the investigative and comparison compounds that inhibited visible growth of microorganisms was the minimal inhibitory concentration (MIC).

[11] = tested on: Pseudomonas aeruginosa ATCC 27853; assay: Serial dilution on solid agar, P. aeruginosa; assay type: cell-based; details: ATCC27853, solid Mueller-Hinton agar, 24 hours
Protocol: as §2, §3, §4

[12] = tested on: Proteus mirabilis ATCC 12459; assay: Serial dilution on solid agar, P. mirabilis; assay type: cell-based; details: ATCC12459, solid Mueller-Hinton agar, 24 hours
Protocol: as §2, §3, §4

EC50 [2]: 90 ± 6 µM | EC50 [3]: 85.5 ± 7.1 µM | EC50 [4]: > 100 µM | EC50 [5]: > 100 µM | EC50 [6]: > 100 µM | EC50 [7]: > 100 µM | MIC [10]: 100 µM (≈ 46.2 µg/mL) | MIC [11]: > 1000 µM | MIC [12]: 1000 µM (≈ 462 µg/mL) | melting point: 221 to 222 °C
SMILES: Cc1cc(NS(=O)(=O)c2ccc(NCCC(=O)NN=Cc3ccc([N+](=O)[O-])o3)cc2)no1 [Compound 16b, N-(5-methylisoxazol-3-yl)-4-((3-(2-((5-nitrofuran-2-yl)methylene)hydrazineyl)-3-oxopropyl)amino)-benzenesulfonamide]
reduced cell viability up to about [1]: about 40% | sensitivity of S. epidermidis in liquid medium [8]: most sensitive | sensitivity of B. cereus in liquid medium [9]: most sensitive
